The results in this text go back to PubChem BioAssay (NCI).

Broadly, the GI50 is the concentration giving 50% growth inhibition. The TGI is the concentration giving total growth inhibition.

Values joined by “and” are separate entries in the source; they are usually repeats but may differ in a detail not shown here. Identical values can stand only once.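 Exposure lasted 48 hours, with cells grown in 96-well plates and compounds tested at five concentrations. Here, GI50 denotes the concentration required for 50% inhibition of growth. TGI: total growth inhibition.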

Among the test systems are HT29 colon; T-47D breast; SN12C renal; MDA-MB-435; OVCAR-8 ovarian; MDA-MB-231 breast; HS 578T breast; SW-620 colon; UACC-62 melanoma; TK-10 renal.
Test in all cases: DTP human tumour cell line panel, 48 h

In the case of `S=C(c1ccc2c(c1)OCO2)N1CCN(c2cccc(Cl)c2)CC1`, the GI50 in the assay with HT29 colon is 0.406 µM; with T-47D breast, 7.31 µM; in the assay on SN12C renal, 7.51 µM; in the assay with MDA-MB-435, 0.182 µM; with OVCAR-8 ovarian, 0.975 µM; in the assay on MDA-MB-231 breast, 5.73 µM. Moreover, the GI50 was 0.391 µM in the assay with HS 578T breast, 0.404 µM with SW-620 colon, 0.429 µM with UACC-62 melanoma and 4.55 µM with TK-10 renal. For the same compound, the TGI in the assay on HT29 colon is greater than 100 µM; with T-47D breast, greater than 100 µM; in the assay with SN12C renal, greater than 100 µM; in the assay on MDA-MB-435, 0.607 µM; in the assay on OVCAR-8 ovarian it was 7.21 µM; with MDA-MB-231 breast, greater than 100 µM. For the same compound, the TGI in the assay with HS 578T breast is 3.54 µM; with SW-620 colon, greater than 100 µM; with UACC-62 melanoma, greater than 100 µM; with TK-10 renal, greater than 100 µM.
For the compound `CC(C)NC(=O)OCc1c(COC(=O)NC(C)C)c(-c2ccc(Cl)c(Cl)c2)n2c1CCC2`, the total growth inhibition concentration (TGI) in the assay with HT29 colon was 64.1 µM; in the assay on T-47D breast, greater than 56.2 µM; with SN12C renal, 68.2 µM; in the assay on MDA-MB-435, greater than 100 µM; with OVCAR-8 ovarian, 73.4 µM; in the assay on MDA-MB-231 breast, greater than 100 µM. For the same compound, the concentration for total growth inhibition (TGI) in the assay on HS 578T breast is greater than 100 µM; with SW-620 colon, 71.7 µM; in the assay with UACC-62 melanoma, 53.9 µM; in the assay on TK-10 renal, 88.2 µM.
Take `O=C(O)c1ccccc1-c1ccccc1C(=O)Nc1ccc2c(c1)[nH]c(=O)c1ccccc12`: the TGI in the assay with HT29 colon, with T-47D breast, in the assay on SN12C renal, in the assay with MDA-MB-435, in the assay on OVCAR-8 ovarian and with MDA-MB-231 breast was greater than 100 µM in each case. Moreover, the concentration for total growth inhibition (TGI) with HS 578T breast, in the assay on SW-620 colon, in the assay with UACC-62 melanoma and with TK-10 renal was greater than 100 µM throughout.
Take `OCC1OC(n2cnc3c2NC=NC[C@H]3O)CC1O` (some centres undefined): the GI50 in the assay with HT29 colon is 469 µM and > 588 µM; with SN12C renal, greater than 588 µM; with SW-620 colon, 478 µM and > 588 µM; with UACC-62 melanoma, greater than 588 µM. Further, the TGI in the assay on HT29 colon is 474 µM and > 588 µM; in the assay on T-47D breast it was 281 µM; in the assay on SN12C renal, 500 µM and > 588 µM; in the assay on MDA-MB-435, greater than 500 µM; in the assay with OVCAR-8 ovarian it was 500 µM; with MDA-MB-231 breast, greater than 500 µM. Besides, the total growth inhibition concentration (TGI) in the assay on HS 578T breast is greater than 500 µM; in the assay with SW-620 colon, 500 µM and > 588 µM; in the assay on UACC-62 melanoma it was 461 µM and > 588 µM; in the assay on TK-10 renal, greater than 500 µM.
